Source: ChEMBL document CHEMBL2401630, “A thienopyrimidine derivative induces growth inhibition and apoptosis in human cancer cell lines via inhibiting Aurora B kinase activity” (Eur J Med Chem, 2013)
Calls of active or inactive are those of the source. The rule behind the calls is not given here.

Experiments:
[1] = target: High affinity nerve growth factor receptor (Homo sapiens) (UniProt P04629); experiment: Inhibition of TRKA (unknown origin) at 10 uM by Z'-LYTE kinase assay
[2] = target: Platelet-derived growth factor receptor beta (Homo sapiens) (UniProt P09619); experiment: Inhibition of PDGFR beta (unknown origin) at 10 uM by Z'-LYTE kinase assay
[3] = target: Proto-oncogene tyrosine-protein kinase receptor Ret (Homo sapiens) (UniProt P07949); experiment: Inhibition of RET (unknown origin) at 10 uM by Z'-LYTE kinase assay
[4] = target: 5'-AMP-activated protein kinase catalytic subunit alpha-2 (Homo sapiens) (UniProt P54646); experiment: Inhibition of AMPK (unknown origin) at 10 uM by Z'-LYTE kinase assay
[5] = target: Vascular endothelial growth factor receptor 2 (Homo sapiens) (UniProt P35968); experiment: Inhibition of VEGFR2 (unknown origin) at 10 uM by Z'-LYTE kinase assay
[6] = system: SW-620; experiment: Induction of apoptosis in human SW620 cells assessed as late apoptotic cells after 48 hrs by Annexin-V staining-based flow cytometry; format: functional, cell-based
[7] = target: Glycogen synthase kinase-3 beta (Homo sapiens) (UniProt P49841); experiment: Inhibition of GSK3 beta (unknown origin) at 10 uM by Z'-LYTE kinase assay
[8] = system: SK-OV-3; experiment: Cytotoxicity against human SKOV3 cells after 72 hrs by CCK-8 assay; format: functional, cell-based; conditions: SK-OV-3, 72 h
[9] = species: Homo sapiens; experiment: Inhibition of PKA (unknown origin) at 10 uM by Z'-LYTE kinase assay
[10] = system: SW-620; experiment: Induction of apoptosis in human SW620 cells assessed as late apoptotic cells at 20 uM after 48 hrs by Annexin-V staining-based flow cytometry (reference value: 4.52 %); format: functional
[11] = target: T1, Aurora kinase B (Homo sapiens, UniProt Q96GD4); experiment: Inhibition of Aurora B kinase in human SW620 cells assessed as inhibition of Histone H3 phosphorylation after 48 hrs by Western blotting analysis; format: cell-based; conditions: SW-620
[12] = target: T1, Aurora kinase B; experiment: Inhibition of Aurora B kinase in human HeLa cells assessed as inhibition of Histone H3 phosphorylation after 48 hrs by immuno-fluorescence analysis relative to control; format: cell-based
[13] = system: HeLa; experiment: Cytotoxicity against human HeLa cells after 72 hrs by CCK-8 assay; format: functional, cell-based
[14] = target: T1, Aurora kinase B; experiment: Inhibition of Aurora B kinase phosphorylation in human HepG2 cells after 48 hrs by Western blotting analysis; format: cell-based
[15] = system: HGC-27; experiment: Cytotoxicity against human HGC27 cells after 72 hrs by CCK-8 assay; format: functional, cell-based; conditions: HGC-27, 72 h
[16] = target: Aurora kinase A (Homo sapiens) (UniProt O14965); experiment: Inhibition of Aurora A kinase (unknown origin) at 10 uM by Z'-LYTE kinase assay
[17] = system: SW-620; experiment: Induction of apoptosis in human SW620 cells assessed as late apoptotic cells at 10 uM after 48 hrs by Annexin-V staining-based flow cytometry (reference value: 4.52 %); format: functional
[18] = target: T1, Aurora kinase B; experiment: Inhibition of Aurora B kinase in human HeLa cells assessed as inhibition of Histone H3 phosphorylation after 48 hrs by Western blotting analysis; format: cell-based
[19] = Cytotoxicity against human PANC cells after 72 hrs by CCK-8 assay; format: functional, cell-based
[20] = target: Serine/threonine-protein kinase PLK1 (Homo sapiens) (UniProt P53350); experiment: Inhibition of PLK1 (unknown origin) at 10 uM by Z'-LYTE kinase assay
[21] = target: T1, Aurora kinase B; experiment: Inhibition of Aurora B kinase in human HepG2 cells assessed as inhibition of Histone H3 phosphorylation after 48 hrs by Western blotting analysis; format: cell-based
[22] = target: Tyrosine-protein kinase receptor UFO (Homo sapiens) (UniProt P30530); experiment: Inhibition of AXL (unknown origin) at 10 uM by Z'-LYTE kinase assay
[23] = target: T1, Aurora kinase B; experiment: Inhibition of Aurora B kinase (unknown origin) at 10 uM by Z'-LYTE kinase assay
[24] = target: RAC-alpha serine/threonine-protein kinase (Homo sapiens) (UniProt P31749); experiment: Inhibition of AKT1 (unknown origin) at 10 uM by Z'-LYTE kinase assay
[25] = system: SW-620; experiment: Cytotoxicity against human SW620 cells at 20 uM incubated for 96 hrs measured after 10 days by colony formation assay relative to control; format: functional
[26] = system: SW-620; experiment: Growth inhibition in human SW620 cells at 5 to 10 uM incubated for 96 hrs followed by compound washout measured after 48 hrs by CCK-8 assay; format: functional, cell-based
[27] = system: SW-620; experiment: Growth inhibition in human SW620 cells at 5 to 10 uM after 96 hrs by CCK-8 assay relative to control; format: functional, cell-based
[28] = target: T1, Aurora kinase B; experiment: Inhibition of Aurora B kinase phosphorylation in human HeLa cells after 48 hrs by Western blotting analysis; format: cell-based
[29] = system: SW-620; experiment: Cytotoxicity against human SW620 cells at 10 uM incubated for 96 hrs measured after 10 days by colony formation assay relative to control; format: functional
[30] = system: PC-3; experiment: Cytotoxicity against human PC3 cells after 72 hrs by CCK-8 assay; format: functional, cell-based; conditions: PC-3, 72 h
[31] = system: SW-620; experiment: Induction of apoptosis in human SW620 cells assessed as late apoptotic cells at 5 uM after 48 hrs by Annexin-V staining-based flow cytometry (reference value: 4.52 %); format: functional
[32] = system: HCT-116; experiment: Cytotoxicity against human HCT116 cells after 72 hrs by CCK-8 assay; format: functional, cell-based; conditions: HCT-116, 72 h
[33] = system: CNE; experiment: Cytotoxicity against human CNE cells after 72 hrs by CCK-8 assay; format: functional, cell-based
[34] = system: HepG2; experiment: Cytotoxicity against human HepG2 cells after 72 hrs by CCK-8 assay; format: functional, cell-based; conditions: HepG2, 72 h
[35] = target: RAF proto-oncogene serine/threonine-protein kinase (Homo sapiens) (UniProt P04049); experiment: Inhibition of c-Raf (unknown origin) at 10 uM by Z'-LYTE kinase assay
[36] = system: A-375; experiment: Cytotoxicity against human A375 cells after 72 hrs by CCK-8 assay; format: functional, cell-based; conditions: A-375, 72 h
[37] = system: SW-620; experiment: Growth inhibition in human SW620 cells assessed as cell death at 10 uM incubated for 96 hrs measured after 8 days by CCK-8 assay; format: functional, cell-based
[38] = system: MCF7; experiment: Cytotoxicity against human MCF7 cells after 72 hrs by CCK-8 assay; format: functional, cell-based; conditions: MCF7, 72 h
[39] = target: T1, Aurora kinase B; experiment: Inhibition of Aurora B kinase phosphorylation in human SW620 cells after 48 hrs by Western blotting analysis; format: cell-based; conditions: SW-620
[40] = system: SW-620; experiment: Cytotoxicity against human SW620 cells after 72 hrs by CCK-8 assay; format: functional, cell-based; conditions: SW-620, 72 h
[41] = system: MDA-MB-231; experiment: Cytotoxicity against human MDA-MB-231 cells after 72 hrs by CCK-8 assay; format: functional, cell-based; conditions: MDA-MB-231, 72 h
[42] = target: CDK2/Cyclin A2 (Homo sapiens) (UniProt P24941+P20248); experiment: Inhibition of CDK2/CycA (unknown origin) at 10 uM by Z'-LYTE kinase assay; format: protein-complex assay
[43] = target: T1, Aurora kinase B; experiment: Competitive inhibition of recombinant Aurora B kinase (unknown origin) expressed in Escherichia coli by Z'-LYTE kinase assay in presence of ATP
[44] = system: A549; experiment: Cytotoxicity against human A549 cells after 72 hrs by CCK-8 assay; format: functional, cell-based; conditions: A549, 72 h
[45] = system: SK-HEP1; experiment: Cytotoxicity against human SKHEP1 cells after 72 hrs by CCK-8 assay; format: functional, cell-based; conditions: SK-HEP1, 72 h
[46] = target: Epidermal growth factor receptor (Homo sapiens) (UniProt P00533); experiment: Inhibition of EGFR (unknown origin) at 10 uM by Z'-LYTE kinase assay
[47] = target: T1, Aurora kinase B; experiment: Inhibition of recombinant Aurora B kinase (unknown origin) expressed in Escherichia coli
[48] = Cytotoxicity against human Hep3B cells after 72 hrs by CCK-8 assay; format: functional, cell-based, Hep 3B2

T1 sequence (Q96GD4 whole entry): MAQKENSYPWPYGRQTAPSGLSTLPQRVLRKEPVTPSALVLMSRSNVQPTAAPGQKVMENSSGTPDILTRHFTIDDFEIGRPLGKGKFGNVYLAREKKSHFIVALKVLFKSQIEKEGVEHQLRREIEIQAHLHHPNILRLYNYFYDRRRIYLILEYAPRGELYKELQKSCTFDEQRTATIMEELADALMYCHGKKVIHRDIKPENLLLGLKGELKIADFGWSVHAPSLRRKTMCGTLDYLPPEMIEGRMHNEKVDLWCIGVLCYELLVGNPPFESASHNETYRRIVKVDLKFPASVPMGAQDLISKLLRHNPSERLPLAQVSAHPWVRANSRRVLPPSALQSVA
RAF proto-oncogene serine/threonine-protein kinase (Homo sapiens), sequence (P04049 whole entry): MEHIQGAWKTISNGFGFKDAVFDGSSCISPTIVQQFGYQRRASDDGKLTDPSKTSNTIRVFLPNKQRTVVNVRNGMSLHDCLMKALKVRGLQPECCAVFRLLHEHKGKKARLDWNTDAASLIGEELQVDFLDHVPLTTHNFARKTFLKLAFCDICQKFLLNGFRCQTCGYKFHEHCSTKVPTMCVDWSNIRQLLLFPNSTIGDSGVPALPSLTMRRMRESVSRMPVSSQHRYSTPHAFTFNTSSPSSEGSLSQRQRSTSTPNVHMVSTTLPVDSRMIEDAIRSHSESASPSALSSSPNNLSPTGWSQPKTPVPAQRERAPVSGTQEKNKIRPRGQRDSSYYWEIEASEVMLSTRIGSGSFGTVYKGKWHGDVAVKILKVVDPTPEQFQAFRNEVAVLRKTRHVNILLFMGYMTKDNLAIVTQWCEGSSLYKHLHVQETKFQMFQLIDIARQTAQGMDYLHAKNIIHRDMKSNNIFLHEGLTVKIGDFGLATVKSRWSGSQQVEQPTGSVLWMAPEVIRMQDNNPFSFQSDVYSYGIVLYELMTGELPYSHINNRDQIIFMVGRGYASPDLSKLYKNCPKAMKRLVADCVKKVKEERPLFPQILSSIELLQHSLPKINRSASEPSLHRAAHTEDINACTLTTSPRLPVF
Epidermal growth factor receptor (Homo sapiens), sequence (P00533 whole entry): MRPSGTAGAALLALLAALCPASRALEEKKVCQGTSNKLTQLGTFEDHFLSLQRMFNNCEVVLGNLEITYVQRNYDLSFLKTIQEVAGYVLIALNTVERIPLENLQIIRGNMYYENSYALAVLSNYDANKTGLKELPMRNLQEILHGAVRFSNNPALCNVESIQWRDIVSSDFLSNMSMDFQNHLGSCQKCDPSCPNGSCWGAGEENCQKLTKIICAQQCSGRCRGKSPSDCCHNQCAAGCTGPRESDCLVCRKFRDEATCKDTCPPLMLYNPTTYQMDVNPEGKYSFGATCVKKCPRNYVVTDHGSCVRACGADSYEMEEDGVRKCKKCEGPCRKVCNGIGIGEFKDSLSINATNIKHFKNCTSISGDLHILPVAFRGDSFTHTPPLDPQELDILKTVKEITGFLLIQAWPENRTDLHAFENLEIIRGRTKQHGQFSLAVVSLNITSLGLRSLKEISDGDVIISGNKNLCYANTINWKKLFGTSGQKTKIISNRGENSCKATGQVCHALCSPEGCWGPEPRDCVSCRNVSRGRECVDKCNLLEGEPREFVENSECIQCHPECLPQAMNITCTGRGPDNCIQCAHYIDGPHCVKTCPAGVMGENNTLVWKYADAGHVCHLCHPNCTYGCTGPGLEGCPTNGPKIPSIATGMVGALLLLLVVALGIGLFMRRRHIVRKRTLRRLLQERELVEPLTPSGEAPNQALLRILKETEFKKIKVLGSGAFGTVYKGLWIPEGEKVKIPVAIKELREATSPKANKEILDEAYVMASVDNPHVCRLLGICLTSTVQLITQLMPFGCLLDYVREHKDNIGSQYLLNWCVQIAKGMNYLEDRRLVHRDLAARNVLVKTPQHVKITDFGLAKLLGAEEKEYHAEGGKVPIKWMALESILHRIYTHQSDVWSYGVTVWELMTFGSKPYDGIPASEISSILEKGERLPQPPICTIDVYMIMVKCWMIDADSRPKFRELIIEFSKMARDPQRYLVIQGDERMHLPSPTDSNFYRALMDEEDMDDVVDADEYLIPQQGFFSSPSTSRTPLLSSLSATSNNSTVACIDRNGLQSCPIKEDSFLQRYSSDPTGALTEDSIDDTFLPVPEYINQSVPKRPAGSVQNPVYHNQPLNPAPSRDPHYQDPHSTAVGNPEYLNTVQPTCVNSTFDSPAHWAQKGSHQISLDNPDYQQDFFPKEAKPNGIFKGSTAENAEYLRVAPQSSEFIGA
Glycogen synthase kinase-3 beta (Homo sapiens), sequence (P49841 whole entry, looked up): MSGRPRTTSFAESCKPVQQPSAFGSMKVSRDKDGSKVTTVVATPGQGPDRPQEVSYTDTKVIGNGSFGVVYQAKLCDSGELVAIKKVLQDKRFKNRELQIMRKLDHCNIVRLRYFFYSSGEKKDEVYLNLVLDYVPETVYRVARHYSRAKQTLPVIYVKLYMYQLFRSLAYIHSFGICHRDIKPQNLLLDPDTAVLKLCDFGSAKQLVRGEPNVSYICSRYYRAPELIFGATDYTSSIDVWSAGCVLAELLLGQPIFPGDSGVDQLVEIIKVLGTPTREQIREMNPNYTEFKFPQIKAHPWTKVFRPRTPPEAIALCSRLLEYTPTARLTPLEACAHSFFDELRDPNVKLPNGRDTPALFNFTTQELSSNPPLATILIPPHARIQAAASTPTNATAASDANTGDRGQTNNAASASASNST
Tyrosine-protein kinase receptor UFO (Homo sapiens), sequence (P30530 whole entry): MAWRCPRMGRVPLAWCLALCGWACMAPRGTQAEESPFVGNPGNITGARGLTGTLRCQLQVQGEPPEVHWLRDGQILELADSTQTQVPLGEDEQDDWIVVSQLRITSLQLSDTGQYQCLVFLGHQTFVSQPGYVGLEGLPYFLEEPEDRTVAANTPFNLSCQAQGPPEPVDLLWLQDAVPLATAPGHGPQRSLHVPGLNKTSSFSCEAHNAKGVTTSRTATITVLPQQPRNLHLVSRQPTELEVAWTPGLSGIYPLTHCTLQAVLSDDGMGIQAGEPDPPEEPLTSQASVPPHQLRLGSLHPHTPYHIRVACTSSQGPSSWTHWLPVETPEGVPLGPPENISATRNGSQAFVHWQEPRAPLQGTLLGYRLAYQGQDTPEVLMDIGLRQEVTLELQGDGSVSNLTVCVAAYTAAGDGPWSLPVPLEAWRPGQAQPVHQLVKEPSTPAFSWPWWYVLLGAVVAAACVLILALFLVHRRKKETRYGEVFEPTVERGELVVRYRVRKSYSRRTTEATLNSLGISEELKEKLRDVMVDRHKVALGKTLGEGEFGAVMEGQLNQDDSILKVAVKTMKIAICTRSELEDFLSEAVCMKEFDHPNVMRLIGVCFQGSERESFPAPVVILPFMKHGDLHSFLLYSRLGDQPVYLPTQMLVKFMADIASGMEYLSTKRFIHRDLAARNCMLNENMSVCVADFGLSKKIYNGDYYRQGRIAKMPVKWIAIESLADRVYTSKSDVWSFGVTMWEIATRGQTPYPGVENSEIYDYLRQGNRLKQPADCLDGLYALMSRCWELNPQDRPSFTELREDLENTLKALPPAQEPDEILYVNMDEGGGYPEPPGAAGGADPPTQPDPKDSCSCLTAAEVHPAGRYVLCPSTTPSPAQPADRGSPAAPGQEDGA
Serine/threonine-protein kinase PLK1 (Homo sapiens), sequence (P53350 whole entry): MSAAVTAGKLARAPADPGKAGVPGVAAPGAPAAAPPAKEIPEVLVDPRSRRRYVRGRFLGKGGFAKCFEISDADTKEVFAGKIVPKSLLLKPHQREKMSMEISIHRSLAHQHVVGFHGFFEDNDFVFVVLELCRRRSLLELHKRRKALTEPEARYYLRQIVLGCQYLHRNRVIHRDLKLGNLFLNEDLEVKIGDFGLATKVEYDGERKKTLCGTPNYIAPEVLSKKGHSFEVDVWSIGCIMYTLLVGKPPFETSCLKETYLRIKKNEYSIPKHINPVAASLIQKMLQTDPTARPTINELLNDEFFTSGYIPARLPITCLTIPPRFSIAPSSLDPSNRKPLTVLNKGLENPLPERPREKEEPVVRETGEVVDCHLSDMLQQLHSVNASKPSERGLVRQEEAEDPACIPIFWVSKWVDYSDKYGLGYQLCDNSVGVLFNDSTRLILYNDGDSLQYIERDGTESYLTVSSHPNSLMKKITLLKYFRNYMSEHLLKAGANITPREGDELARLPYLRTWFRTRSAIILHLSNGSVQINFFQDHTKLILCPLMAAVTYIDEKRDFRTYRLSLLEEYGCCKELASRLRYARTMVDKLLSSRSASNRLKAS
Aurora kinase A (Homo sapiens), sequence (O14965 whole entry): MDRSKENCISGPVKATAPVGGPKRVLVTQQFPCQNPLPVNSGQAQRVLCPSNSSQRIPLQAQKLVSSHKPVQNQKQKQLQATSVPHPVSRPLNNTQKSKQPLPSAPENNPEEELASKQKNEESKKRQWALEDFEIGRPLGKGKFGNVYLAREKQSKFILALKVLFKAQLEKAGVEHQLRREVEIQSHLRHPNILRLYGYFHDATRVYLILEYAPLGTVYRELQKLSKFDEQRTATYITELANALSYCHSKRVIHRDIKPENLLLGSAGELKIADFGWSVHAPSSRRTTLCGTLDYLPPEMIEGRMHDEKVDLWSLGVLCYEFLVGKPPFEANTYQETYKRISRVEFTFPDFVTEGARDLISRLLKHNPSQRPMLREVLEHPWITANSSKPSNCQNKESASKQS
RAC-alpha serine/threonine-protein kinase (Homo sapiens), sequence (P31749 whole entry): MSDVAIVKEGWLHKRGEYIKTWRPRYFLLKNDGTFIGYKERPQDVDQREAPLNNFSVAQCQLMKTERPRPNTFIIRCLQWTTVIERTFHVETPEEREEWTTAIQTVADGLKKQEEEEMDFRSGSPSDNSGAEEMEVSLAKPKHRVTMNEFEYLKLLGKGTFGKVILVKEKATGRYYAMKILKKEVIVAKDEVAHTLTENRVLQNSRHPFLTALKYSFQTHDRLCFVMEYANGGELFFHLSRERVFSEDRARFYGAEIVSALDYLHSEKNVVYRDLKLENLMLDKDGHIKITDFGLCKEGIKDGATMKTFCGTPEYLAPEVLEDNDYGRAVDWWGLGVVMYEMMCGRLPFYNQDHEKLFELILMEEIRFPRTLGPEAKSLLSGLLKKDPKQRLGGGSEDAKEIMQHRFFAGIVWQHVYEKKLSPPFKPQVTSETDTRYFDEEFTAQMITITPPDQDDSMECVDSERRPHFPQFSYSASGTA

## c1ccc(-c2csc3ncnc(N4CCc5ccccc5C4)c23)cc1
[1]
  inhibition: 4.18%
[2]
  inhibition: 9.63%
[3]
  inhibition: 1.86%
[4]
  inhibition: 3.37%
[5]
  inhibition: 3.02%
[6]
  Activity: Dose-dependent effect
[7]
  inhibition: 13%
[8]
  IC50: 20.6 µM
[9]
  inhibition: 1.77%
[10]
  Activity: 35.39%
[11]
  inhibition: Active
[12]
  inhibition: Active
[13]
  IC50: 20.8 µM
[14]
  inhibition: Dose-dependent effect
[15]
  IC50: 17.4 µM
[16]
  inhibition: 65.3%
[17]
  Activity: 24.09%
[18]
  inhibition: Active
[19]
  IC50: 42.3 µM
[20]
  inhibition: 6.5%
[21]
  inhibition: Active
[22]
  inhibition: 2.58%
[23]
  inhibition: 74.4%
[24]
  inhibition: 5.32%
[25]
  Activity: 13.2%
[26]
  growth inhibition (GI): inactive
[27]
  growth inhibition (GI): Active
[28]
  inhibition: Dose-dependent effect
[29]
  Activity: 33.6%
[30]
  IC50: 13.2 µM
[31]
  Activity: 9.34%
[32]
  IC50: > 100 µM
[33]
  IC50: > 100 µM
[34]
  IC50: 23.4 µM
[35]
  inhibition: 1.42%
[36]
  IC50: 15.2 µM
[37]
  growth inhibition (GI): Active
[38]
  IC50: 27 µM
[39]
  inhibition: Dose-dependent effect
[40]
  IC50: 6.25 µM
[41]
  IC50: > 100 µM
[42]
  inhibition: 27.7%
[43]
  inhibition: Active
[44]
  IC50: > 100 µM
[45]
  IC50: > 100 µM
[46]
  inhibition: 1.69%
[47]
  IC50: 0.141 µM
[48]
  IC50: > 100 µM
